Experimental findings from patent US7202265B2, “Indolinone combinatorial libraries and related products and methods for the treatment of disease” (Sugen, Inc., priority 1997, dated 2007) are described below.

This test has as its system human MET. The test can be described thus: MET biochemical kinase assay. On the set-up: concentration or dose not given beside the values. An excerpt: (d) MET Biochemical Kinase Assay
A met biochemical kinase assay may be performed for met generally as described above for other kinases by substituting that or the other kinases. In particular, ELISA plates are coated with goat anti-rabbit Fc antibodies, which are used to capture commercially available (from Santa Cruz Biotechnology) rabbit polyclonal antibodies to the cytoplasmic domain of human MET. […] The chimeric receptors, or MET, from these lysates are captured on the antibody coated plates. After washing away extraneous proteins, test compounds are added and an in vitro kinase assay is performed by addition of an appropriate kinase buffer (containing ATP, divalent metal ions, etc.). Incorporation of phosphate into the captured receptors is detected with an anti-phosphotyrosine antibody conjugate with horse radish peroxidase using TMB as a substrate for calorimetric detection.
Take `CCCCN(CCCC)c1ccc(C=C2C(=O)Nc3ccc(CCCl)cc32)cc1` [10722/G10]: the “Met Kinase % Inhibition” value amounted to 27.0%.

For the molecule `CC(C)(C)c1cc(C=C2C(=O)Nc3c(Br)cc(Br)cc32)c(O)c(C(C)(C)C)c1` [10723/A11], the “Met Kinase % Inhibition” value was found to be 60.0%. On to `Cc1c(Br)ccc2c1C(=Cc1ccc(O)cc1O)C(=O)N2` [10723/C08], for which the “Met Kinase % Inhibition” value was 83.0%.

Turning to `Cc1c(Br)ccc2c1C(=Cc1cc(C(C)(C)C)cc(C(C)(C)C)c1O)C(=O)N2` [10723/C11], the “Met Kinase % Inhibition” value is reported as 47.0%.

Turning to `CNS(=O)(=O)c1ccc2c(c1)C(=Cc1ccc(O)c(O)c1O)C(=O)N2` [10723/D02], the “Met Kinase % Inhibition” value stood at 93.0%. The result for `CNS(=O)(=O)c1ccc2c(c1)C(=Cc1ccc(O)c(C)c1)C(=O)N2` [10723/D06] reads 60.0%. The result for `CNS(=O)(=O)c1ccc2c(c1)C(=Cc1cc(C(C)(C)C)cc(C(C)(C)C)c1O)C(=O)N2` [10723/D11] reads 42.0%; that for `O=C1Nc2ccc(S(=O)(=O)N3CCOCC3)cc2C1=Cc1ccc(O)c(O)c1O` [10723/F02], 99.0%; that for `O=C1Nc2ccc(S(=O)(=O)N3CCOCC3)cc2C1=Cc1cc(O)c(O)c(Br)c1` [10723/F04], 94.0%. On to `O=C1Nc2ccc(CCCl)cc2C1=Cc1ccccc1Br` [10723/G07], for which the “Met Kinase % Inhibition” value turned out to be 43.0%. Consider `O=C1Nc2ccc(I)cc2C1=Cc1ccc(O)c([N+](=O)[O-])c1` [10724/B03], for which the “Met Kinase % Inhibition” value came to 51.0%. As to `CCc1ccc(C=C2C(=O)Nc3ccc(I)cc32)o1` [10724/B10], the “Met Kinase % Inhibition” value is listed as 95.0%. Regarding `Cc1csc2sc(C=C3C(=O)Nc4ccc(I)cc43)c(C)c12` [10724/B11], the “Met Kinase % Inhibition” value worked out at 43.0%. Regarding `Cc1c(Br)ccc2c1C(=Cc1cccn1-c1ccc(Cl)cc1)C(=O)N2` [10724/C09], the “Met Kinase % Inhibition” value stood at 5.3%. The result for `Cc1c(Br)ccc2c1C(=Cc1sc3scc(C)c3c1C)C(=O)N2` [10724/C11] reads 4.9%; that for `CNS(=O)(=O)c1ccc2c(c1)C(=Cc1cc(C(C)C)c(O)c(C(C)C)c1)C(=O)N2` [10724/D06], 23.0%. Consider `O=C1Nc2ccc(S(=O)(=O)Nc3ccc(C(F)(F)F)cc3)cc2C1=Cc1cccn1-c1ccc(Cl)cc1` [10724/E09], for which the “Met Kinase % Inhibition” value was determined as 27.0%.

On to `CCc1ccc(C=C2C(=O)Nc3ccc(S(=O)(=O)Nc4ccc(C(F)(F)F)cc4)cc32)o1` [10724/E10], for which the “Met Kinase % Inhibition” value came to 84.0%. In the case of `O=C1Nc2ccc(CCCl)cc2C1=Cc1ccc([N+](=O)[O-])c(O)c1` [10724/G04] it was 71.0%. The result for `O=C1Nc2ccc(CCCl)cc2C1=Cc1cc2c3c(c1O)CCCN3CCC2` [10724/G05] reads 61.0%; that for `O=C1Nc2ccc(CCCl)cc2C1=Cc1cc2ccccc2o1` [10724/G07], 2.3%; that for `O=C1Nc2ccc(CCCl)cc2C1=Cc1cccn1-c1ccc(Cl)cc1` [10724/G09], −2.8%. For `COc1ccc(Br)c(C=C2C(=O)Nc3c(Br)cc(Br)cc32)c1O` [10725/A03], the “Met Kinase % Inhibition” value is 68.0%. In the case of `O=CN1CCN(c2ccc(C=C3C(=O)Nc4ccc(I)cc43)cc2)CC1` [10725/B07] it was 74.0%.

Take `Cc1c(Br)ccc2c1C(=Cc1sccc1Br)C(=O)N2` [10725/C02]: the “Met Kinase % Inhibition” value was 6.3%. As for `Cc1c(Br)ccc2c1C(=Cc1ccc(N3CCOCC3)cc1)C(=O)N2` [10725/C08], the “Met Kinase % Inhibition” value was determined as 28.0%. As to `Cc1c(Br)ccc2c1C(=Cc1c(Br)cnn1-c1ccc(Cl)cc1)C(=O)N2` [10725/C10], the “Met Kinase % Inhibition” value is −0.6%.

With `CNS(=O)(=O)c1ccc2c(c1)C(=Cc1sccc1Br)C(=O)N2` [10725/D02], the “Met Kinase % Inhibition” value stood at 14.0%. As for `CNS(=O)(=O)c1ccc2c(c1)C(=Cc1ccc(N3CCN(C=O)CC3)cc1)C(=O)N2` [10725/D07], the “Met Kinase % Inhibition” value is reported as 37.0%. For `CNS(=O)(=O)c1ccc2c(c1)C(=Cc1[nH]c(Cl)c(CC(=O)OC)c1C(=O)OC)C(=O)N2` [10725/D09], the “Met Kinase % Inhibition” value came to 28.0%. Take `Cc1ccc(C=C2C(=O)Nc3ccc(S(=O)(=O)Nc4ccc(C(F)(F)F)cc4)cc32)o1` [10725/E04]: the “Met Kinase % Inhibition” value amounted to 59.0%. For `O=C1Nc2ccc(S(=O)(=O)Nc3ccc(C(F)(F)F)cc3)cc2C1=Cc1c(Br)cnn1-c1ccc(Cl)cc1` [10725/E10], the “Met Kinase % Inhibition” value was −4.7%.

On to `O=C1Nc2ccc(S(=O)(=O)Nc3ccc(C(F)(F)F)cc3)cc2C1=Cc1c[nH]cn1` [10725/E11], for which the “Met Kinase % Inhibition” value came to 9.6%.

Regarding `COC(=O)Cc1c(Cl)[nH]c(C=C2C(=O)Nc3ccc(CCCl)cc32)c1C(=O)OC` [10725/G09], the “Met Kinase % Inhibition” value is 4.7%. The result for `Cc1c(Br)ccc2c1C(=Cc1ccc(Br)o1)C(=O)N2` [10726/C05] reads 58.0%; that for `CNS(=O)(=O)c1ccc2c(c1)C(=Cc1ccc(OC)cc1)C(=O)N2` [10726/D11], 9.6%.

Take `O=C1Nc2ccc(S(=O)(=O)Nc3ccc(C(F)(F)F)cc3)cc2C1=Cc1ccc(Br)o1` [10726/E05]: the “Met Kinase % Inhibition” value stood at 71.0%. The result for `Cc1cn(C)cc1C=C1C(=O)Nc2ccc(S(=O)(=O)Nc3ccc(C(F)(F)F)cc3)cc21` [10726/E06] reads −7.4%. The result for `O=C1Nc2ccc(S(=O)(=O)Nc3ccc(C(F)(F)F)cc3)cc2C1=Cc1cc(O)c2c(c1O)CCCC2` [10726/E07] reads 84.0%; that for `CCN(CC)c1ccc(C=C2C(=O)Nc3c(Br)cc(Br)cc32)cc1` [10727/A02], 52.0%. The result for `O=C1Nc2c(Br)cc(Br)cc2C1=Cc1ccccc1Sc1ccc(Cl)cc1` [10727/A05] reads 29.0%; that for `N#Cc1cccc(C=C2C(=O)Nc3c(Br)cc(Br)cc32)c1` [10727/A08], 9.7%.

With `O=C1Nc2ccc(I)cc2C1=Cc1cc2c(cc1Cl)OCO2` [10727/B06], the “Met Kinase % Inhibition” value is 91.0%. Turning to `Cc1c(Br)ccc2c1C(=Cc1ccccc1Sc1ccc(Cl)cc1)C(=O)N2` [10727/C05], the “Met Kinase % Inhibition” value is 8.9%. The result for `CCc1cc(CC)c(C=C2C(=O)Nc3ccc(S(=O)(=O)NC)cc32)[nH]1` [10727/D03] reads 24.0%; that for `CNS(=O)(=O)c1ccc2c(c1)C(=Cc1cc(Cl)cc(Br)c1O)C(=O)N2` [10727/D04], 76.0%. The result for `CCN(CC)c1ccc(C=C2C(=O)Nc3ccc(S(=O)(=O)Nc4ccc(C(F)(F)F)cc4)cc32)cc1` [10727/E02] reads 28.0%; that for `O=C1Nc2ccc(S(=O)(=O)Nc3ccc(C(F)(F)F)cc3)cc2C1=Cc1cc2c(cc1Cl)OCO2` [10727/E06], −2.2%. Turning to `N#Cc1cccc(C=C2C(=O)Nc3ccc(S(=O)(=O)Nc4ccc(C(F)(F)F)cc4)cc32)c1` [10727/E08], the “Met Kinase % Inhibition” value was 27.0%. The result for `COc1cccc(C=C2C(=O)Nc3ccc(S(=O)(=O)Nc4ccc(C(F)(F)F)cc4)cc32)c1OC` [10727/E11] reads −5.4%. As for `CCN(CC)c1ccc(C=C2C(=O)Nc3ccc(S(=O)(=O)N4CCOCC4)cc32)cc1` [10727/F02], the “Met Kinase % Inhibition” value is listed as 52.0%. Turning to `CCc1cc(CC)c(C=C2C(=O)Nc3ccc(S(=O)(=O)N4CCOCC4)cc32)[nH]1` [10727/F03], the “Met Kinase % Inhibition” value came to 22.0%. The result for `O=C1Nc2ccc(S(=O)(=O)N3CCOCC3)cc2C1=Cc1cc(Cl)cc(Br)c1O` [10727/F04] reads 92.0%; that for `O=C1Nc2ccc(S(=O)(=O)N3CCOCC3)cc2C1=Cc1ccccc1Sc1ccc(Cl)cc1` [10727/F05], 6.0%. In the case of `N#Cc1ccc(C=C2C(=O)Nc3ccc(S(=O)(=O)N4CCOCC4)cc32)cc1` [10727/F09] it was 9.3%; in that of `COc1cccc(C=C2C(=O)Nc3ccc(S(=O)(=O)N4CCOCC4)cc32)c1OC` [10727/F11], −3.0%; in that of `O=C1Nc2ccc(CCCl)cc2C1=Cc1cc(Cl)cc(Br)c1O` [10727/G04], 94.0%.

For `O=C1Nc2ccc(CCCl)cc2C1=Cc1ccccc1Sc1ccc(Cl)cc1` [10727/G05], the “Met Kinase % Inhibition” value came out at 7.1%. The result for `COc1cccc(C=C2C(=O)Nc3ccc(CCCl)cc32)c1OC` [10727/G11] reads −0.8%. With `O=C1Nc2ccc(I)cc2C1=Cc1cc(C(F)(F)F)ccc1F` [10728/B08], the “Met Kinase % Inhibition” value stood at 77.0%.

In the case of `COc1ccc(OC)c(C=C2C(=O)Nc3ccc(S(=O)(=O)Nc4ccc(C(F)(F)F)cc4)cc32)c1` [10728/E02], the “Met Kinase % Inhibition” value is 5.4%. As to `O=C1Nc2ccc(S(=O)(=O)Nc3ccc(C(F)(F)F)cc3)cc2C1=Cc1c(F)cccc1C(F)(F)F` [10728/E09], the “Met Kinase % Inhibition” value came to 40.0%.

In the case of `COc1ccc(OC)c(C=C2C(=O)Nc3ccc(CCCl)cc32)c1` [10728/G02], the “Met Kinase % Inhibition” value turned out to be 7.1%. For `COc1cccc(OC)c1C=C1C(=O)Nc2ccc(CCCl)cc21` [10728/G03], the “Met Kinase % Inhibition” value turned out to be 8.8%.

With `Cc1ccsc1C=C1C(=O)Nc2ccc(I)cc21` [10729/B05], the “Met Kinase % Inhibition” value was found to be 51.0%. In the case of `O=C1Nc2ccc(I)cc2C1=Cc1cccnc1` [10729/B08] it was 66.0%; in that of `CSc1ccc(C=C2C(=O)Nc3ccc(S(=O)(=O)Nc4ccc(C(F)(F)F)cc4)cc32)cc1` [10729/E04], 9.8%; in that of `O=C1Nc2ccc(S(=O)(=O)Nc3ccc(C(F)(F)F)cc3)cc2C1=Cc1cccc(Oc2ccccc2)c1` [10729/E06], −0.7%.
